From ChEMBL document CHEMBL1687820, “Photolysis of hydrogen peroxide, an effective disinfection system via hydroxyl radical formation” (Antimicrob Agents Chemother, 2010) come the findings set out here.

Assay type in all cases: functional, organism-based
The subject of experiment [1] is Streptococcus mutans. The experiment can be described thus: Antibacterial activity against Streptococcus mutans JCM 5705 assessed as reduction of biofilm at 1 M followed by 300 mW of laser irradiation measured within 3 mins by scanning electron microscopy.
Experiment [2] relates to Staphylococcus aureus. As to the kind of experiment: Antibacterial activity against Staphylococcus aureus ATCC 25923 assessed as reduction of viable organism at 1 M followed by 300 mW of laser irradiation measured within 3 mins.
In experiment [3] the test system is Enterococcus faecalis. As to the kind of experiment: Antibacterial activity against Enterococcus faecalis ATCC 29212 assessed as reduction of viable organism at 1 M followed by 300 mW of laser irradiation measured within 3 mins.
Experiment [4] concerns Streptococcus mutans. As to the kind of experiment: Antibacterial activity against Streptococcus mutans JCM 5705 assessed as reduction of viable organism at 1 M followed by 300 mW of laser irradiation measured within 3 mins.
Experiment [5] deals with Aggregatibacter actinomycetemcomitans. The experiment can be described thus: Antibacterial activity against Aggregatibacter actinomycetemcomitans JCM 2434 assessed as reduction of viable organism at 1 M followed by 300 mW of laser irradiation measured within 3 mins.
For experiment [6], the system named is Staphylococcus aureus. As to the kind of experiment: Antibacterial activity against Staphylococcus aureus ATCC 25923 assessed as concentration required to 4 log reduction of viable organism measured after 300 mW of laser irradiation.
Experiment [7] relates to Enterococcus faecalis. As to the kind of experiment: Antibacterial activity against Enterococcus faecalis ATCC 29212 assessed as concentration required to 4 log reduction of viable organism measured after 300 mW of laser irradiation.
Experiment [8] concerns Streptococcus mutans. The experiment can be described thus: Antibacterial activity against Streptococcus mutans JCM 5705 assessed as concentration required to 4 log reduction of viable organism measured after 300 mW of laser irradiation.
Experiment [9] relates to Aggregatibacter actinomycetemcomitans. As to the kind of experiment: Antibacterial activity against Aggregatibacter actinomycetemcomitans JCM 2434 assessed as concentration required to 4 log reduction of viable organism measured after 300 mW of laser irradiation.
Experiment [10] concerns Streptococcus mutans. As to the kind of experiment: Antibacterial activity against Streptococcus mutans JCM 5705 assessed as concentration required to 5 log reduction of biofilm measured after 300 mW of laser irradiation by scanning electron microscopy.
The test system of experiment [11] is Enterococcus faecalis. The experiment can be described thus: Antibacterial activity against Enterococcus faecalis ATCC 29212 assessed as reduction of viable organism measured after 300 mW of laser irradiation.
Experiment [12] concerns Streptococcus mutans. As to the kind of experiment: Antibacterial activity against Streptococcus mutans JCM 5705 assessed as reduction of biofilm measured within 3 mins by scanning electron microscopy.

As to `[OH]`, the log10CFU/ml in [1] was above 5; in experiment [2], above 4; in experiment [3], above 4; in [4] it was 4; in experiment [5], above 4; in [12], 1. Also, the Activity is 173 µM in experiment [6]; 258 µM in [7]; 173 µM in [8]; 89 µM in experiment [9]; 258 µM in experiment [10]; “Dose-dependent effect” in experiment [11].
